Legend:
Test in all cases: relative viability (nuclei count vs DMSO), 5 days (fraction); higher = more cells survive
[1] = test system: 201T
In short: (§1)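 Cells from lung cancer lines were seeded into 1536-well plates and, one day later, dosed by pin tool. Treatments were either a single drug or a fixed dose of an anchor drug with five library-drug doses (not always all listed) in √10 steps. After 5 days, nuclei were stained in a one-step fixation (final 0.05% Triton X-100, 1% formaldehyde, 1 ug/ml Hoechst) and counted on 4× images, and relative viability is the treated-to-vehicle nuclei ratio, as the median of duplicate plates.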

[2] = test system: A-427
In short: as §1

[3] = test system: ABC-1
In short: as §1

[4] = test system: BEN
In short: as §1

[5] = test system: CAL-12T
In short: as §1

[6] = test system: H3255
In short: as §1

[7] = test system: LC-2-ad
In short: as §1

[8] = test system: LCLC-97TM1
In short: as §1

[9] = test system: NCI-H1650
In short: as §1

[10] = test system: NCI-H1651
In short: as §1

[11] = test system: NCI-H1915
In short: as §1

## Nc1ccn([C@@H]2O[C@H](CO)[C@@H](O)[C@@H]2O)c(=O)n1 [Cytarabine] + CS(=O)(=O)N1CCN(Cc2cc3nc(-c4cccc5[nH]ncc45)nc(N4CCOCC4)c3s2)CC1 [Pictilisib] (partner 1 µM)
[1]; first compound 0.005 µM
  relative viability: 0.655
[1]; first compound 0.01581 µM
  relative viability: 0.707
[1]; first compound 0.05 µM
  relative viability: 0.738
[1]; first compound 0.1581 µM
  relative viability: 0.576
[1]; first compound 0.5 µM
  relative viability: 0.416
[2]; first compound 0.005 µM
  relative viability: 0.576
[2]; first compound 0.01581 µM
  relative viability: 0.419
[2]; first compound 0.05 µM
  relative viability: 0.314
[2]; first compound 0.1581 µM
  relative viability: 0.178
[2]; first compound 0.5 µM
  relative viability: 0.147
[3]; first compound 0.005 µM
  relative viability: 0.939
[3]; first compound 0.01581 µM
  relative viability: 0.679
[3]; first compound 0.05 µM
  relative viability: 0.698
[3]; first compound 0.1581 µM
  relative viability: 0.635
[3]; first compound 0.5 µM
  relative viability: 0.325
[4]; first compound 0.005 µM
  relative viability: 0.571
[4]; first compound 0.01581 µM
  relative viability: 0.504
[4]; first compound 0.05 µM
  relative viability: 0.413
[4]; first compound 0.1581 µM
  relative viability: 0.279
[4]; first compound 0.5 µM
  relative viability: 0.195
[5]; first compound 0.005 µM
  relative viability: 0.403
[5]; first compound 0.01581 µM
  relative viability: 0.357
[5]; first compound 0.05 µM
  relative viability: 0.31
[5]; first compound 0.1581 µM
  relative viability: 0.326
[5]; first compound 0.5 µM
  relative viability: 0.222
[6]; first compound 0.005 µM
  relative viability: 0.438
[6]; first compound 0.01581 µM
  relative viability: 0.446
[6]; first compound 0.05 µM
  relative viability: 0.403
[6]; first compound 0.1581 µM
  relative viability: 0.294
[6]; first compound 0.5 µM
  relative viability: 0.303
[7]; first compound 0.005 µM
  relative viability: 0.402
[7]; first compound 0.01581 µM
  relative viability: 0.419
[7]; first compound 0.05 µM
  relative viability: 0.361
[7]; first compound 0.1581 µM
  relative viability: 0.212
[7]; first compound 0.5 µM
  relative viability: 0.16
[8]; first compound 0.005 µM
  relative viability: 0.207
[8]; first compound 0.01581 µM
  relative viability: 0.177
[8]; first compound 0.05 µM
  relative viability: 0.0754
[8]; first compound 0.1581 µM
  relative viability: 0.124
[8]; first compound 0.5 µM
  relative viability: 0.108
[9]; first compound 0.005 µM
  relative viability: 0.442
[9]; first compound 0.01581 µM
  relative viability: 0.467
[9]; first compound 0.05 µM
  relative viability: 0.359
[9]; first compound 0.1581 µM
  relative viability: 0.205
[9]; first compound 0.5 µM
  relative viability: 0.181
[10]; first compound 0.005 µM
  relative viability: 0.446
[10]; first compound 0.01581 µM
  relative viability: 0.522
[10]; first compound 0.05 µM
  relative viability: 0.533
[10]; first compound 0.1581 µM
  relative viability: 0.17
[10]; first compound 0.5 µM
  relative viability: 0.165
[11]; first compound 0.005 µM
  relative viability: 0.866
[11]; first compound 0.01581 µM
  relative viability: 0.853
[11]; first compound 0.05 µM
  relative viability: 0.589
[11]; first compound 0.1581 µM
  relative viability: 0.274
[11]; first compound 0.5 µM
  relative viability: 0.233
